Assay [1] concerns Plasmodium falciparum strain 3D7. Kind of assay: Plasmodium falciparum 3D7 in vitro growth inhibition (SYBRgreen I). Type of assay: cell-based. As to conditions: Plasmodium falciparum, 3D7; read-out: pEC50 for Pf 3D7 (converted). The protocol: Parasite Cultures and Cytotoxicity Assay Methodology for Plasmodium falciparum. […] Growth inhibition of the Plasmodium falciparum cultures was quantified in a 10-point dose response curve with a 1 in 3 dilution series from a top assay concentration of 50 μM. This 384 well plate based fluorescence assay utilises the binding of SYBRgreen I (Thermo Fisher Scientific/Invitrogen cat. no. S7585) to double stranded DNA, which greatly increases the fluorescent signal at 528 nm after excitation at 485 nm. Mefloquine was used as a drug control to monitor the quality of the assay (Z′=0.6 to 0.8, where Z′ is a measure of the discrimination between the positive and negative controls on a screen plate). Dose-response curves were determined from a minimum of 3 independent experiments. Compound bioactivity was expressed as EC50, the effective concentration of compound causing 50% parasite death.

The test system of the next assay is Hep G2. Kind of assay: Hep G2 in-vitro cytotoxicity assay. Type of assay: cell-based. As to conditions: Homo sapiens, HepG2, read-out: Hs HEPG2 pEC50 (converted). An excerpt: In-vitro cytotoxicity studies can be carried out using Hep G2 (Human hepatocyte carcinoma, HPACC cat. no. 85011430) used as indicators for general mammalian cell toxicity. Hep G2 in-vitro cytotoxicity can be assessed using the assay procedure as described in “Use of a human-derived liver cell line for the detection of cytoprotective, antigenotoxic and cogenotoxic agents”, Volker Mersch-Sundermann, Siegfried Knasmüller, Xin-jiang Wu, Firouz Darroudi, Fekadu Kassie. J. Tox 198 (2004) 329-340) the contents of which are incorporated herein by reference.

Assay [2] has as its target T1, Plasmodium falciparum lysyl t-RNA synthetase (Pf-KRS1) (Plasmodium falciparum, UniProt Q8IDJ8).
T1 construct: Pf KRS1-; made in house; host or cells: E. coli BL21 (DE3)
Kind of assay: Pf-KRS1 inhibition biochemical assay (Kinase-Glo, ATP depletion). As to conditions: read-out: Pf-KRS pIC50 (converted). The source says: Plasmodium falciparum Lysine tRNA Synthetase (KRS1) Biochemical Assay Methodology.
Lysine tRNA Synthetase (KRS1) is an enzyme which catalyses the esterification of L-Lysine to the appropriate transfer ribonucleic acid (tRNA), to form an aminoacyl-tRNA. Once the tRNA is charged, a ribosome transfers the amino acid from the tRNA onto a growing peptide, according to the genetic code.
The substrates of this reaction are L-lysine, and adenosine triphosphate (ATP), the overall reaction is: amino acid+tRNA+ATP→aminoacyl-tRNA+AMP+PPi
In this overall reaction AMP is adenosine monophosphate and PP; is inorganic pyrophosphate. The reaction progression in a biochemical assay can be tracked by the depletion of one of the substrates, in the case of this invention, ATP. This was done using the proprietary assay kit, Kinase Glo® Assay which is a luminescent kinase assay platform suitable for monitoring kinase activities using up to 10 μm ATP which is commercially available from the Promega Corporation of Madison, Wis., USA. The Kinase-Glo® Assay was performed in a single well of a multiwell plate by adding a volume of Kinase-Glo® Reagent equal to the volume of a completed kinase reaction and measuring luminescence. The resulting luminescent signal is correlated with the amount of ATP present and is inversely correlated with the amount of kinase activity. As such by use of this assay methodology a reduction of the luminescent signal is relative to the reduction in ATP as the reaction progresses. A compound which inhibits the action of KRS will show no drop in the luminescent signal from assay controls.
Assays were performed using both Plasmodium falciparum and human KRS to assess any selectivity of various test compounds.
Test compounds were solubilized in DMSO at a top concentration of 10 mM and serially diluted 1 in 3 to achieve a range of final assay concentrations of 50 μM to 2.5 nM in 10 μl reaction volume.
KRS was diluted to a working concentration of 75 nM in assay buffer (25 mM HEPES, 25 mM KOH, 10 mM MgCl2.6H2O, 50 mM KCl), and the following ‘Master Mix’ prepared in assay buffer: 0.1 mg/ml BSA, 250 μM DTT, 200 μM Spermine, 0.05% NP-40, ATP 3 μM for Pf KRS1 (4 μM for Hs KRS1), 0.4 mg/ml tRNA from Yeast, 60 μM L-Lysine, 0.5 U/ml Pyrophosphatase.
Plates were incubated at room temperature for 5 h for Pf KRS (2.5 hrs for HsKRS), then the assay stopped by the addition of 10 μl of The Kinase-Glo® Reagent Assay was performed in a single well of a multiwell plate by adding a volume of Kinase-Glo® Reagent which is commercially available from the Promega Corporation of Madison, Wis., USA. The plates were incubated in the dark for a further 15 mins before being read for luminescence on a BMG PHERAstar® FSX plate reader which is a multi-mode reader for use in high-throughput screening available from BMG Labtech if Cary, N.C., USA. Data were analysed by calculating the percentage inhibition compared to the maximum and minimum assay controls. Concentration effect curves were fitted using nonlinear regression within ActivityBase and IC50 values were determined using standard protocols.

For the next assay, the system named is Cryptosporidium parvum. Kind of assay: In vitro Crytosporidium inhibition assay. The assay is classed as cell-based. As to conditions: Cryptosporidium parvum; read-out: Cryptosporidium parvum pEC50 (converted). The source says: Assay Method for Measurement of In Vitro Inhibition of Crytosporidium.
These experiments were run in accordance with the method of Besssoff et. al. Antimicrob. Agents Chemother. 2013, 57:1804-1814. Results from these experiments are provided in the Experimental Results hereinafter.

This is an account of results in patent publication US11485720B2, “Anti-infective agents” (University of Dundee, priority 2016, dated 2022).

SMILES strings stand for the structures. Several values for one entry are separate records, joined by “and”; a condition that tells them apart may be missing. Equal values may be shown once.

T1 sequence (Q8IDJ8 entry or part of it, looked up, natural form): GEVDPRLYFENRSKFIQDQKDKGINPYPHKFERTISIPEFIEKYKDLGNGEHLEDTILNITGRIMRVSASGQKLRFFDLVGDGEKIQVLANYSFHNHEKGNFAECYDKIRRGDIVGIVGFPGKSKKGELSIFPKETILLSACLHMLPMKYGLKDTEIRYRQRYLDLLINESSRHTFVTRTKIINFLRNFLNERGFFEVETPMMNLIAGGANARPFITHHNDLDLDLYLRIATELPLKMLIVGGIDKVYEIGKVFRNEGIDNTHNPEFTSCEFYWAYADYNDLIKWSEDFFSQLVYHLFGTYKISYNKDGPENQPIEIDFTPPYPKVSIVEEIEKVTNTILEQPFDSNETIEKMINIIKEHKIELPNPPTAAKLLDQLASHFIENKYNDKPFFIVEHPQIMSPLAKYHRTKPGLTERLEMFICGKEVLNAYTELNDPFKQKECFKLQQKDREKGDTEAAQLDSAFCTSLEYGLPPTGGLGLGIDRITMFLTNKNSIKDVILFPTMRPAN

On to `O=C(NCC1(O)CC2(CCC2)C1)c1cc(=O)c2cc(F)cc(O)c2o1` [Example 76D, 6-fluoro-8-hydroxy-N-((2-hydroxyspiro[3.3]heptan-2-yl)methyl)-4-oxo-4H-chromene-2-carboxamide], for which the EC50 is 398 nM in assay [1], 50100 nM in the assay on Hep G2 and 3980 nM in the assay on Cryptosporidium parvum. Further, in assay [2], the IC50 was 126 nM.

As to `O=C(NCC1CCC(F)(F)CC1)c1cc(=O)c2ccccc2o1` [Example 21, N-[(4,4-difluorocyclohexyl)methyl]-4-oxo-chromene-2-carboxamide], the EC50 was 50100 nM in the assay with Hep G2 and 7940 nM with Cryptosporidium parvum.

For `O=C(NCC1CCC(F)(F)CC1)c1cc(=O)c2cc(F)cc(O)c2o1` [Example 75, N-((4,4-difluorocyclohexyl)methyl)-6-fluoro-8-hydroxy-4-oxo-4H-chromene-2-carboxamide], the EC50 in assay [1] was 200 nM; with Hep G2, 50100 nM; in the assay with Cryptosporidium parvum it was 794 nM. Moreover, in assay [2], the IC50 is 79.4 nM.

On to `O=C(NCC1(O)CCC(F)(F)CC1)c1cc(=O)c2cc(F)cc(O)c2o1` [Example 76A, N-((4,4-difluoro-1-hydroxycyclohexyl)methyl)-6-fluoro-8-hydroxy-4-oxo-4H-chromene-2-carboxamide], for which the EC50 is 79.4 nM in assay [1], 50100 nM with Hep G2 and 3160 nM with Cryptosporidium parvum. For the same compound, the IC50 in assay [2] is 50.1 nM.

With `O=C(NCC1CCCCC1)c1cc(=O)c2cccc(O)c2o1` [Example 67, N-(cyclohexylmethyl)-8-hydroxy-4-oxo-4H-chromene-2-carboxamide], the EC50 in assay [1] is 63.1 nM; in the assay on Cryptosporidium parvum, 316 nM. Besides, the IC50 in assay [2] was 63.1 nM.

As to `O=C(NCC1(O)CCCCC1)c1cc(=O)c2cc(F)ccc2o1` [Example 41, 6-fluoro-N-[(1-hydroxycyclohexyl)methyl]-4-oxo-chromene-2-carboxamide], the EC50 in assay [1] was 200 nM; in the assay on Hep G2, 25100 nM; in the assay on Cryptosporidium parvum, 501 nM. Also, in assay [2], the IC50 was 100 nM.

As for `O=C(NCC1(O)CCCCC1)c1cc(=O)c2cc(Cl)cc(O)c2o1` [Example 73, 6-Chloro-8-hydroxy-N-((1-hydroxycyclohexyl)methyl)-4-oxo-4H-chromene-2-carboxamide], the values for the EC50 with Hep G2 and in the assay with Cryptosporidium parvum were 20000 nM and 39.8 nM, respectively. Besides, the IC50 in assay [2] was 50.1 nM.

Take `O=C(NCC1CCCC1)c1cc(=O)c2ccccc2o1` [Example 23, N-(cyclopentylmethyl)-4-oxo-chromene-2-carboxamide]: the EC50 in assay [1] was 1580 nM; with Cryptosporidium parvum, 2000 nM. Also, the IC50 in assay [2] was 398 nM.

Consider `O=C(NCCCC1CCC1)c1cc(=O)c2cc(F)cc(O)c2o1` [Example 76G, N-(3-cyclobutylpropyl)-6-fluoro-8-hydroxy-4-oxo-4H-chromene-2-carboxamide], for which the EC50 is 1580 nM in assay [1], 31600 nM in the assay on Hep G2 and 1260 nM in the assay on Cryptosporidium parvum. Moreover, the IC50 in assay [2] is 126 nM.

Regarding `O=C(O)CC1(CNC(=O)c2cc(=O)c3cc(F)ccc3o2)CCCCC1` [Example 57L, 2-(1-((6-fluoro-4-oxo-4H-chromene-2-carboxamido)methyl)cyclohexyl)acetic acid], the EC50 is 794 nM in assay [1], 50100 nM in the assay on Hep G2 and 5010 nM in the assay on Cryptosporidium parvum.

Consider `O=C(NCC1CCCCC1)c1cc(=O)c2ccc(F)cc2o1` [Example 42, N-(cyclohexylmethyl)-7-fluoro-4-oxo-chromene-2-carboxamide], for which the EC50 in assay [1] was 794 nM; with Cryptosporidium parvum, 1260 nM. Besides, in assay [2], the IC50 was 200 nM.

`O=C(NCC1(CO)CCCCC1)c1cc(=O)c2cc(F)ccc2o1` [Example 40, 6-fluoro-N-[[1-(hydroxymethyl)cyclohexyl]methyl]-4-oxo-chromene-2-carboxamide]: the EC50 was 794 nM in assay [1], 50100 nM in the assay with Hep G2 and 1580 nM with Cryptosporidium parvum. Moreover, the IC50 in assay [2] is 251 nM.

With `NC(=O)c1ccc2oc(C(=O)NCC3CCCCC3)cc(=O)c2c1` [Example 43, N2-(cyclohexylmethyl)-4-oxo-chromene-2,6-dicarboxamide], the EC50 in assay [1] was 3160 nM; in the assay with Cryptosporidium parvum, 5010 nM. Also, the IC50 in assay [2] was 398 nM.

For the compound `C[C@H](NC(=O)c1cc(=O)c2cc(F)ccc2o1)C1CCCCC1` [Example 49A, (S)—N-(1-cyclohexylethyl)-6-fluoro-4-oxo-4H-chromene-2-carboxamide], the EC50 in assay [1] is 398 nM; with Cryptosporidium parvum, 158 nM. Moreover, in assay [2], the IC50 was 126 nM.

With `O=C(NCC1(O)CCC(F)(F)CC1)c1cc(=O)c2cc(O)ccc2o1` [Example 57, N-[(4,4-difluoro-1-hydroxy-cyclohexyl)methyl]-6-hydroxy-4-oxo-chromene-2-carboxamide], the EC50 in assay [1] was 158 nM; with Cryptosporidium parvum, 5010 nM. For the same compound, in assay [2], the IC50 was 126 nM.

`O=C(NCC1CCCCC1)c1cc(=O)c2ccc(Cl)cc2o1` [Example 9, 7-chloro-N-(cyclohexylmethyl)-4-oxo-chromene-2-carboxamide]: the EC50 in assay [1] was 1580 nM; in the assay on Cryptosporidium parvum, 3550 nM. Also, the IC50 in assay [2] was 200 nM.

On to `O=C(NCC1CCC(F)(F)CC1)c1cc(=O)c2ccc(F)c(O)c2o1` [Example 79, N-((4,4-difluorocyclohexyl)methyl)-7-fluoro-8-hydroxy-4-oxo-4H-chromene-2-carboxamide], for which the EC50 with Hep G2 was 50100 nM; in the assay with Cryptosporidium parvum, 794 nM. Moreover, the IC50 in assay [2] was 200 nM.

On to `Nc1cc(F)cc2c(=O)cc(C(=O)NCC3(O)CCC(F)(F)CC3)oc12` [Example 93, 8-amino-N-[(4,4-difluoro-1-hydroxy-cyclohexyl)methyl]-6-fluoro-4-oxo-chromene-2-carboxamide], for which the EC50 is 12600 nM in the assay on Hep G2 and 501 nM in the assay with Cryptosporidium parvum. Further, the IC50 in assay [2] is 50.1 nM and 63.1 nM.

Consider `O=C(NCC1CC2CCC1C2)c1cc(=O)c2cc(F)ccc2o1` (centres unmarked) [Example 36, 6-fluoro-N-(norbornan-2-ylmethyl)-4-oxo-chromene-2-carboxamide], for which the EC50 in assay [1] was 794 nM; in the assay on Cryptosporidium parvum, 1260 nM. Also, in assay [2], the IC50 is 126 nM.

With `O=C(NCC1(O)CCC(F)(F)CC1)c1cc(=O)c2cc(F)cc(F)c2o1` [Example 56, N-((4,4-difluoro-1-hydroxycyclohexyl)methyl)-6,8-difluoro-4-oxo-4H-chromene-2-carboxamide], the EC50 in assay [1] was 1580 nM; in the assay with Cryptosporidium parvum, 7940 nM. Further, the IC50 in assay [2] is 316 nM.
